Here are results for one compound from patent US6391921B1 (priority 2000, dated 2002).

Data set [1] relates to RBL-2H3 cells. In words: Mast cell viability by trypan blue dye exclusion. The format is cell-based, rat. As to conditions: 300 μM, 2 hour treatment at 37° C. The source says:
The viability of compound D-58-treated mast cells ranged from 91 to 92%. […] Stimulation of RBL-2H3 mast cells using IgE/antigen as a stimulus induced the release of significant amounts of preformed granule-associated β-hexosaminidase (47.2±7.9% of total cellular content) as well as newly synthesized LTC4 (5.8±1.8 pg/10^6 cells).

The test system of data set [2] is HaCaT cells. In words: PGE2 release from UVB-irradiated HaCaT cells. The format is cell-based, human. The note with it: 20 mJ/cm^2 UVB, 24 hours post irradiation; FIG. 5. The text has this:
A bank of 8-FSX24T12/HO/UVB lamps (National Biological Corporation, Twinsburg, Ohio) that emit light predominantly in the UVB range (280-320 nm) was used to irradiate the cell cultures. The performance of the UVB lamps was always confirmed before irradiation using a UVB meter (model-500C obtained from National Biological Corporation, Twinsburg, Ohio). The dose of UVB light used to irradiate cell cultures was 20 mJ/cm^2. Confluent HaCaT cells cultured in 24-well culture dishes were washed three times with serum-free DMEM containing 1% BSA and incubated with indicated concentrations of compound D-58 for 1 hour at 37° C. […] Compound D-58 was readministered after irradiation and the cells were incubated for another 24 hours at 37° C. The cell supernatants were collected and their PGE2 concentration was measured by ELISA. The protein contents of the cell pellets were determined using the Pierce BCA protein assay method.
One of the major arachidonic acid metabolites in UVB-irradiated epidermal cells is prostaglandin E2 (PGE2), which induces edema and erythema in skin (refs 34 and 35). PGE2 release can be detected as early as 6 hours and peaks between 24-48 hours following UVB exposure. […]
To summarize, confluent monolayers of the human epidermal cell line HaCaT were either irradiated with UVB (20 mJ/cm^2) or sham irradiated. […] The drug was readministered after UVB exposure. […]

For data set [3], the system named is RBL-2H3 mast cells. In words: IgE receptor/FcεRI-mediated mast cell degranulation (β-hexosaminidase release). Type of data set: cell-based, rat. How it is done: Monolayers of RBL-2H3 rat mast cells were sensitized with monoclonal anti-DNP IgE antibody (0.24 mg/ml) for 1 hour at 37° C. in a 48-well tissue culture plate. Unbound IgE was removed by washing the cells with phosphate buffered saline. After washing, PIPES-buffered saline containing 1 mM calcium chloride was added to the monolayers of the RBL-2H3 cells. The cells were challenged with 20 ng/ml DNP-BSA for 30 minutes at 37° C. The plate was centrifuged at 200 g for 10 minutes at 4° C. and supernatants were saved. […]
To study the effects of compound D-58, RBL-2H3 cells were incubated with compound D-58 at the indicated concentrations or vehicle for 1 hour prior to antigen challenge. Mast cell degranulation (β-hexosaminidase release, % of total) was assessed by measuring the β-hexosaminidase levels in cell free supernatants and Triton X-100 solubilized pellets using the formula: β-hexosaminidase release, % of total=100×(β-hexosaminidase level in supernatant/β-hexosaminidase level in supernatant+solubilized pellet). […]
In order to examine the effects of compound D-58 on IgE receptor/FcεRI-mediated mast cell activation and mediator release, RBL-2H3 mast cells were exposed to increasing concentrations of this ethanone or vehicle prior to challenge with antigen (DNP-BSA). […] Mast cell β-hexosaminidase release (FIG. 3A) and LTC4 release (FIG. 3B) were measured. […]

On to `COc1ccc(CC(=O)c2c(O)cc(O)cc2O)cc1` [Compound D-58], for which, in data set [1], the “effect on viability of RBL-2H3 cells” value was “did not affect the viability”. In addition, the “PGE2 release from UVB irradiated cells” value in data set [2] is given as “inhibited the PGE2 release”. The “IgE/antigen induced mast cell degranulation (β-hexosaminidase)” value in data set [3] (1 hour prior to DNP-BSA challenge, FIG. 3A) is reported as “inhibited”. In data set [3] (incubation without antigen challenge (data not shown)), the “mediator release induced by compound alone” value was “did not induce mediator release”.
